Test [1] concerns the target Galectin-3 (Homo sapiens, UniProt P17931). Put plainly: (§1) Fluorescence Polarization-Based Assay: Compounds 7, 15-19, and 22 were evaluated for their efficiency in inhibiting galectin-1 and galectin-3 in a known fluorescence polarization-based assay (Sörme et al., 2003a, 2004). All compounds were potent inhibitors of galectin-1 and galectin-3 with dissociation constant in the low μM or nM range. This evidences that a properly structured cyclohexane can mimic the subsite D-binding saccharide moiety, e.g. N-acetylglucosamine in the disaccharide N-acetyllactosamine. (In general: Polarisation of emitted light reports the rotation of a fluorescent probe.)

Test [2] addresses Galectin-1 (Homo sapiens, UniProt P09382). The test is described as §1.

One may read the Kd as the free concentration of one partner at which half of the binding sites on the other are occupied at equilibrium, for simple one-to-one binding. Read a low Kd as a tighter complex.

Galectin-1, sequence (P09382 whole entry): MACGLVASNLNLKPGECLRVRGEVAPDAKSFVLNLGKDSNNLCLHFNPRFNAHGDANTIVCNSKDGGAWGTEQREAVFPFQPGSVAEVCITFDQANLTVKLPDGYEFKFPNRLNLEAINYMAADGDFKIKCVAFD
Galectin-3, sequence (P17931 whole entry): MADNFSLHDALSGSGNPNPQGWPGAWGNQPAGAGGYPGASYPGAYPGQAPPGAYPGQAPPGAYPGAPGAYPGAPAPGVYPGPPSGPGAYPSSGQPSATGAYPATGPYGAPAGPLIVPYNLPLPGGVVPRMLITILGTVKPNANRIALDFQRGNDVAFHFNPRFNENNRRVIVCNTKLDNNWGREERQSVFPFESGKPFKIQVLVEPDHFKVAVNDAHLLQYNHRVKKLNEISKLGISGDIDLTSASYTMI

For `CO[C@@H]1OC(CO)[C@@H](O[C@@H]2OC(CO)[C@H](O)[C@H](O)C2O)[C@H](O)C1NC(C)=O` (some centres not stated), the Kd in test [1] stood at 59 µM; in test [2] it was 65 µM.
